Data from patent US20230073777A1, “CYCLIC-AMP RESPONSE ELEMENT BINDING PROTEIN (CBP) AND/OR ADENOVIRAL E1A BINDING PROTEIN OF 300 KDA (P300) DEGRADATION COMPOUNDS AND METHODS OF USE” (CULLGEN (SHANGHAI), INC., priority 2019, published 2023).
Read-outs that look alike come from different tables or passages of the source.

What was measured:
LNCaP cells = experiment: LNCaP cell viability assay (CellTiter-Glo); type: cell-based; details: Homo sapiens, 72 h; LNCaP prostate cancer cell viability inhibition, 3 days, CellTiter-Glo (Table 3)
Procedure, shortened: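 LNCaP cells, 5000/well, exposed to compounds in 12-point 3-fold serial dilution (top 10 μM) for 3 days. Viability by CellTiter-Glo luminescence, normalized to untreated cells; IC50 by least-squares nonlinear regression.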

P300 = P300 (Homo sapiens, UniProt Q09472); experiment: Immunoblotting of P300 protein levels in LNCaP or 22RV1 cells; type: cell-based; parameters: LNCaP or 22RV1 cells that express CBP/P300 proteins were treated with GNE-781 or the bivalent compounds; endogenous in cells; host or cells: LNCaP (clone FGC) or 22RV1 cells; details: read-out: Degradation (10 nM)
Sequence of P300 (Q09472 whole entry): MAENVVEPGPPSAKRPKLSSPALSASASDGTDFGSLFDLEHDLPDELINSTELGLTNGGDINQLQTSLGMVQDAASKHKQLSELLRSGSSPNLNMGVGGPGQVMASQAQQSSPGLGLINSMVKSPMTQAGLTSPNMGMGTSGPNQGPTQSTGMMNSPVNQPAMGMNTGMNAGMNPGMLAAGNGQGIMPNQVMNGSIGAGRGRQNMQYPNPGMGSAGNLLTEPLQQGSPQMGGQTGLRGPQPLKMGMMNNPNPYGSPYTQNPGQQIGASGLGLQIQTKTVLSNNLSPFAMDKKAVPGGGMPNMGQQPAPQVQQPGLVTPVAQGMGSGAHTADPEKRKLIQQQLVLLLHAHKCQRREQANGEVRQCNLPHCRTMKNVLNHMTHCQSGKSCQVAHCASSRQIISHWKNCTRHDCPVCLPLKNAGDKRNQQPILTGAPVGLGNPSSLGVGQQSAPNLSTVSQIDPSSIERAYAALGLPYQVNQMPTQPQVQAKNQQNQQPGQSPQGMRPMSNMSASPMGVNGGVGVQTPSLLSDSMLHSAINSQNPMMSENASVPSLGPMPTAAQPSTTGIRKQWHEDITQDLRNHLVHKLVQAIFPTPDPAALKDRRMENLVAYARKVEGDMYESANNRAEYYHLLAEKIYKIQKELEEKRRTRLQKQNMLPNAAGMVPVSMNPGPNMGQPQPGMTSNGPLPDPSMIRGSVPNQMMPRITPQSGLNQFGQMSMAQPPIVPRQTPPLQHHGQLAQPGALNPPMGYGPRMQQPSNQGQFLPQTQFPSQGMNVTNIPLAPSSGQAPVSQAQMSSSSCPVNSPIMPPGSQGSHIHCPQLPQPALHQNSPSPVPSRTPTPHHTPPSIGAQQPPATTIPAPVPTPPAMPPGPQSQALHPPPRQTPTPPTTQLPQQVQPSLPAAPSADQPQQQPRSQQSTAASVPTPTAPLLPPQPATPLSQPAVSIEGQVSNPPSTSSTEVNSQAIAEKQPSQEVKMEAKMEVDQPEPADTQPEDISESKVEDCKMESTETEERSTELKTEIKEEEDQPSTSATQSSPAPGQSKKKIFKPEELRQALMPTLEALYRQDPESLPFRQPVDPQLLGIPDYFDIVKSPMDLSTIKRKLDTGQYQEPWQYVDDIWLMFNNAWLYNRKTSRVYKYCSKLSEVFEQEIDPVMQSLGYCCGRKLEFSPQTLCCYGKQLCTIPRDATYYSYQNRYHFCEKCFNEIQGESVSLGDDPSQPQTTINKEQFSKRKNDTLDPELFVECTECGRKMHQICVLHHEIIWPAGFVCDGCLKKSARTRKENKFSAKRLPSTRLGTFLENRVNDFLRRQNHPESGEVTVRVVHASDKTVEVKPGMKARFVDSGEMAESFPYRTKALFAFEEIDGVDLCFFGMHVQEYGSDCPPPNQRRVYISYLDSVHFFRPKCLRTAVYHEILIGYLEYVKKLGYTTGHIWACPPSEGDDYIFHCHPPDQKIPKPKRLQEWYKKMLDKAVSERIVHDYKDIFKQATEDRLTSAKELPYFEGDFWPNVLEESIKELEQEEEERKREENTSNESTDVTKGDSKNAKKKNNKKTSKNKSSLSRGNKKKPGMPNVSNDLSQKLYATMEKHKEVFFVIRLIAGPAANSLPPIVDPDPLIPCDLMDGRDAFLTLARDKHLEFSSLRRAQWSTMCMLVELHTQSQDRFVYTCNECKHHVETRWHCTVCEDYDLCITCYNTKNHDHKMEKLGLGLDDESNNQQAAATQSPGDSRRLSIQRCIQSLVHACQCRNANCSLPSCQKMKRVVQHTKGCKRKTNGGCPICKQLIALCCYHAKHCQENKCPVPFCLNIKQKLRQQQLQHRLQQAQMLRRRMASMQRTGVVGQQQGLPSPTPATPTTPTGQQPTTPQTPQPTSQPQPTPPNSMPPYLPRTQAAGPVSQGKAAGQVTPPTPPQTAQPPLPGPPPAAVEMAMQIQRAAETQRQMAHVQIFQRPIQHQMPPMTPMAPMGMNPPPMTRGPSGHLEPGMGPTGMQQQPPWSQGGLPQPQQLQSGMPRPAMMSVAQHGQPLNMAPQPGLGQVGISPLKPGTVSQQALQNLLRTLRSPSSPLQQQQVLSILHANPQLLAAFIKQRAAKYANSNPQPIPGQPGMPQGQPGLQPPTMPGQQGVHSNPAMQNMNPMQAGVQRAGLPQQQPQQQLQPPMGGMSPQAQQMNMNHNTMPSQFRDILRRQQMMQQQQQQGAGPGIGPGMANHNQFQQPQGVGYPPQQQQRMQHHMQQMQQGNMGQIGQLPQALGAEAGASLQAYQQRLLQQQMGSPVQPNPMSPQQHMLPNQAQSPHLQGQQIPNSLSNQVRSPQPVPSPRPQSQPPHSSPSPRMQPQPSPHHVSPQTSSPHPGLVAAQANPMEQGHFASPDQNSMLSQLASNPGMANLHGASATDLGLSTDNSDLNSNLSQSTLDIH
Procedure, shortened: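 LNCaP or 22RV1 cells treated with compounds for indicated hours, DMSO as negative control. RIPA lysates resolved by SDS-PAGE and immunoblotted for P300 or CBP, tubulin or vinculin as loading control; chemiluminescent bands quantitated.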

[1] = percentage of inhibition of p300 at 10 nM (Table 3)

IC50 (LNCaP cells) [nM]	inhibition at 0.01 µM (P300; [1]) [%]	SMILES	inhibition at 0.01 µM (P300) [%]
3.2	50 to 80	CC(=O)N1CCc2c(c(N3CCCc4cc(-c5cnn(C)c5)c(C(F)F)cc43)nn2C2CCN(CCN3CCC(CCc4cccc5c4C(=O)N(C4CCC(=O)NC4=O)C5=O)CC3)CC2)C1 (stereo not drawn) [P-157, 4-(2-(1-(2-(4-(5-acetyl-3-(7-(difluoromethyl)-6-(1-methyl-1H-pyrazol-4-yl)-3,4-dihydroquinolin-1(2H)-yl)-4,5,6,7-tetrahydro-1H-pyrazolo[4,3-c]pyridin-1-yl)piperidin-1-yl)ethyl)piperidin-4-yl)ethyl)-2-(2,6-dioxopiperidin-3-yl)isoindoline-1,3-dione]	–
90.1	< 20	CC(=O)N1CCc2c(c(N3CCCc4cc(-c5cnn(C)c5)c(C(F)F)cc43)nn2C2CCN(C(=O)CN3CC(CNc4cccc5c4C(=O)N(C4CCC(=O)NC4=O)C5=O)C3)CC2)C1 (stereo not drawn) [P-158, 4-(((1-(2-(4-(5-Acetyl-3-(7-(difluoromethyl)-6-(1-methyl-1H-pyrazol-4-yl)-3,4-dihydroquinolin-1(2H)-yl)-4,5,6,7-tetrahydro-1H-pyrazolo[4,3-c]pyridin-1-yl)piperidin-1-yl)-2-oxoethyl)azetidin-3-yl)methyl)amino)-2-(2,6-dioxopiperidin-3-yl)isoindoline-1,3-dione]	–
0.2	> 80	CC(=O)N1CCc2c(c(N3CCCc4cc(-c5cnn(C)c5)c(C(F)F)cc43)nn2C2CCN(C(=O)CCCCCCCNc3cccc4c3n(C)c(=O)n4C3CCC(=O)NC3=O)CC2)C1 (stereo not drawn) [P-159, 3-(4-((8-(4-(5-acetyl-3-(7-(difluoromethyl)-6-(1-methyl-1H-pyrazol-4-yl)-3,4-dihydroquinolin-1(2H)-yl)-4,5,6,7-tetrahydro-1H-pyrazolo[4,3-c]pyridin-1-yl)piperidin-1-yl)-8-oxooctyl)amino)-3-methyl-2-oxo-2,3-dihydro-1H-benzo[d]imidazol-1-yl)piperidine-2,6-dione]	–
0.2	> 80	CC(=O)N1CCc2c(c(N3CCCc4cc(-c5cnn(C)c5)c(C(F)F)cc43)nn2C2CCN(C(=O)CCCCCCCCNc3cccc4c3n(C)c(=O)n4C3CCC(=O)NC3=O)CC2)C1 (stereo not drawn) [P-160, 3-(4-((9-(4-(5-acetyl-3-(7-(difluoromethyl)-6-(1-methyl-1H-pyrazol-4-yl)-3,4-dihydroquinolin-1(2H)-yl)-4,5,6,7-tetrahydro-1H-pyrazolo[4,3-c]pyridin-1-yl)piperidin-1-yl)-9-oxononyl)amino)-3-methyl-2-oxo-2,3-dihydro-1H-benzo[d]imidazol-1-yl)piperidine-2,6-dione]	–
0.1	> 80	CC(=O)N1CCc2c(c(N3CCCc4cc(-c5cnn(C)c5)c(C(F)F)cc43)nn2C2CCN(C(=O)CCCCCCCNc3ccc4c(c3)n(C)c(=O)n4C3CCC(=O)NC3=O)CC2)C1 (stereo not drawn) [P-161]	–
0.3	> 80	CC(=O)N1CCc2c(c(N3CCCc4cc(-c5cnn(C)c5)c(C(F)F)cc43)nn2C2CCN(C(=O)CCCCCCCCNc3ccc4c(c3)n(C)c(=O)n4C3CCC(=O)NC3=O)CC2)C1 (stereo not drawn) [P-162, 3-(5-((9-(4-(5-acetyl-3-(7-(difluoromethyl)-6-(1-methyl-1H-pyrazol-4-yl)-3,4-dihydroquinolin-1(2H)-yl)-4,5,6,7-tetrahydro-1H-pyrazolo[4,3-c]pyridin-1-yl)piperidin-1-yl)-9-oxononyl)amino)-3-methyl-2-oxo-2,3-dihydro-1H-benzo[d]imidazol-1-yl)piperidine-2,6-dione]	–
1	> 80	CC(=O)N1CCc2c(c(N3CCCc4cc(-c5cnn(C)c5)c(C(F)F)cc43)nn2C2CCN(C(=O)CCCCCCCCCn3c(=O)n(C4CCC(=O)NC4=O)c4ccccc43)CC2)C1 (stereo not drawn) [P-164, 3-(3-(10-(4-(5-acetyl-3-(7-(difluoromethyl)-6-(1-methyl-1H-pyrazol-4-yl)-3,4-dihydroquinolin-1(2H)-yl)-4,5,6,7-tetrahydro-1H-pyrazolo[4,3-c]pyridin-1-yl)piperidin-1-yl)-10-oxodecyl)-2-oxo-2,3-dihydro-1H-benzo[d]imidazol-1-yl)piperidine-2,6-dione]	–
123	50 to 80	CC(=O)N1CCc2c(c(N3CCCc4cc(-c5cnn(C)c5)c(C(F)F)cc43)nn2C2CCN(C(=O)CCCCCNc3cccc4nc(C)n(C5CCC(=O)NC5=O)c(=O)c34)CC2)C1 (stereo not drawn) [P-165, 3-(5-((6-(4-(5-Acetyl-3-(7-(difluoromethyl)-6-(1-methyl-1H-pyrazol-4-yl)-3,4-dihydroquinolin-1(2H)-yl)-4,5,6,7-tetrahydro-1H-pyrazolo[4,3-c]pyridin-1-yl)piperidin-1-yl)-6-oxohexyl)amino)-2-methyl-4-oxoquinazolin-3(4H)-yl)piperidine-2,6-dione]	–
0.3	> 80	CC(=O)N1CCc2c(c(N3CCCc4cc(-c5cnn(C)c5)c(C(F)F)cc43)nn2C2CCN(Cc3ccc(COc4cccc5c4CN(C4CCC(=O)NC4=O)C5=O)cc3)CC2)C1 (stereo not drawn) [P-166, 3-(4-((4-((4-(5-acetyl-3-(7-(difluoromethyl)-6-(1-methyl-1H-pyrazol-4-yl)-3,4-dihydroquinolin-1(2H)-yl)-4,5,6,7-tetrahydro-1H-pyrazolo[4,3-c]pyridin-1-yl)piperidin-1-yl)methyl)benzyl)oxy)-1-oxoisoindolin-2-yl)piperidine-2,6-dione]	–
156	< 20	CC(=O)N1CCc2c(c(N3CCCc4cc(-c5cnn(C)c5)c(C(F)F)cc43)nn2C2CCN(C(=O)CN3CCC(COc4cccc5c4C(=O)N(C4CCC(=O)NC4=O)C5=O)CC3)CC2)C1 (stereo not drawn) [P-168, 4-((1-(2-(4-(5-Acetyl-3-(7-(difluoromethyl)-6-(1-methyl-1H-pyrazol-4-yl)-3,4-dihydroquinolin-1(2H)-yl)-4,5,6,7-tetrahydro-1H-pyrazolo[4,3-c]pyridin-1-yl)piperidin-1-yl)-2-oxoethyl)piperidin-4-yl)methoxy)-2-(2,6-dioxopiperidin-3-yl)isoindoline-1,3-dione]	–
> 500	< 20	CC(=O)N1CCc2c(c(N3CCCc4cc(-c5cnn(C)c5)c(C(F)F)cc43)nn2C2CCN(C(=O)CN3CCN(CCc4cccc5c4C(=O)N(C4CCC(=O)NC4=O)C5=O)CC3)CC2)C1 (stereo not drawn) [P-169, 4-(2-(4-(2-(4-(5-Acetyl-3-(7-(difluoromethyl)-6-(1-methyl-1H-pyrazol-4-yl)-3,4-dihydroquinolin-1(2H)-yl)-4,5,6,7-tetrahydro-1H-pyrazolo[4,3-c]pyridin-1-yl)piperidin-1-yl)-2-oxoethyl)piperazin-1-yl)ethyl)-2-(2,6-dioxopiperidin-3-yl)isoindoline-1,3-dione]	–
32.6	20 to 50	CC(=O)N1CCc2c(c(N3CCCc4cc(-c5cnn(C)c5)c(C(F)F)cc43)nn2C2CCN(C(=O)CN3CC(CCNc4cccc5c4C(=O)N(C4CCC(=O)NC4=O)C5=O)C3)CC2)C1 (stereo not drawn) [P-170, 4-((2-(1-(2-(4-(5-Acetyl-3-(7-(difluoromethyl)-6-(1-methyl-1H-pyrazol-4-yl)-3,4-dihydroquinolin-1(2H)-yl)-4,5,6,7-tetrahydro-1H-pyrazolo[4,3-c]pyridin-1-yl)piperidin-1-yl)-2-oxoethyl)azetidin-3-yl)ethyl)amino)-2-(2,6-dioxopiperidin-3-yl)isoindoline-1,3-dione]	–
253	20 to 50	CC(=O)N1CCc2c(c(N3CCCc4cc(-c5cnn(C)c5)c(C(F)F)cc43)nn2C2CCN(C(=O)CC#CCCNc3cccc4c3C(=O)N(C3CCC(=O)NC3=O)C4=O)CC2)C1 (stereo not drawn) [P-171, 4-((6-(4-(5-Acetyl-3-(7-(difluoromethyl)-6-(1-methyl-1H-pyrazol-4-yl)-3,4-dihydroquinolin-1(2H)-yl)-4,5,6,7-tetrahydro-1H-pyrazolo[4,3-c]pyridin-1-yl)piperidin-1-yl)-6-oxohex-3-yn-1-yl)amino)-2-(2,6-dioxopiperidin-3-yl)isoindoline-1,3-dione]	–

SMILES	IC50 (LNCaP cells) [nM]	inhibition at 0.01 µM (P300; [1]) [%]	inhibition at 0.01 µM (P300) [%]
CC(=O)N1CCc2c(c(N3CCCc4cc(-c5cnn(C)c5)c(C(F)F)cc43)nn2C2CCN(C(=O)CCCCCCCCn3c(=O)n(C4CCC(=O)NC4=O)c4ccccc43)CC2)C1 (stereo not drawn) [P-163, 3-(3-(9-(4-(5-acetyl-3-(7-(difluoromethyl)-6-(1-methyl-1H-pyrazol-4-yl)-3,4-dihydroquinolin-1(2H)-yl)-4,5,6,7-tetrahydro-1H-pyrazolo[4,3-c]pyridin-1-yl)piperidin-1-yl)-9-oxononyl)-2-oxo-2,3-dihydro-1H-benzo[d]imidazol-1-yl)piperidine-2,6-dione]	0.9	–	> 80
CC(=O)N1CCc2c(c(N3CCCc4cc(-c5cnn(C)c5)c(C(F)F)cc43)nn2C2CCN(CCN3CCC(COc4cccc5c4C(=O)N(C4CCC(=O)NC4=O)C5=O)CC3)CC2)C1 (stereo not drawn) [P-167, 4-((1-(2-(4-(5-Acetyl-3-(7-(difluoromethyl)-6-(1-methyl-1H-pyrazol-4-yl)-3,4-dihydroquinolin-1(2H)-yl)-4,5,6,7-tetrahydro-1H-pyrazolo[4,3-c]pyridin-1-yl)piperidin-1-yl)ethyl)piperidin-4-yl)methoxy)-2-(2,6-dioxopiperidin-3-yl)isoindoline-1,3-dione]	92	–	< 20
